The values below come from patent US20230183219A1, “CONDENSED SUBSTITUTED HYDROPYRROLES AS ANTAGONISTS OF THE MUSCARINIC ACETYLCHOLINE RECEPTOR M4” (Vanderbilt University, priority 2020, published 2023).

The test has as its target T1, Human M4 (Homo sapiens, UniProt P08173).
T1 construct: Human or rat M4 cDNA, along with the chimeric G protein Gqi5, were transfected into Chinese hamster ovary (CHO-K1) cells; expressed in transfected cells; host or cells: CHO-K1 (Chinese hamster ovary, ATCC), stably co-expressing Gqi5
T1 sequence (P08173 1-479): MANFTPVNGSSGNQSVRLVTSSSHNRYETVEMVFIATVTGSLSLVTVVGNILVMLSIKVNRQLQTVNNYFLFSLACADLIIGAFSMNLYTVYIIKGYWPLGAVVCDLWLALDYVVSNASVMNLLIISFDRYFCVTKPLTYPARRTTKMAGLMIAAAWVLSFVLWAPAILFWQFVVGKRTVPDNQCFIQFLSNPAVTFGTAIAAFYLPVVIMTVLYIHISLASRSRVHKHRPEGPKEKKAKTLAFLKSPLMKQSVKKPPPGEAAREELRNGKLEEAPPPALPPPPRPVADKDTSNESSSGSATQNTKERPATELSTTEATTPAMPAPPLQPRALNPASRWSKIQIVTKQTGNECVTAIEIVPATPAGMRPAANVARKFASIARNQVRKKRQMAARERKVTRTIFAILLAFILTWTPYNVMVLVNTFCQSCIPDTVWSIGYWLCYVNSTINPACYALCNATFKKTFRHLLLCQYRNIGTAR
Briefly: mAChR M4 cell-based functional assay (calcium flux, decrease of EC80 acetylcholine response). As to conditions: for remaining activity at 30 µM / Human M4 Emin: % ACh maximum at 30 μM; for remaining activity at 30 µM: read-out: Human M4 Emin; for IC50: M4/Gqi5/CHO-K1 cells, decrease of response to EC80 acetylcholine. In a few lines:
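IC50 reflects inhibition of an EC80 acetylcholine calcium response, fitted by four-parameter logistic equation. Fluo-4-loaded M4/Gqi5 CHO-K1 cells received compound (10-point, 1:3 series) 2 s into the FDSS read, then EC20 acetylcholine at 143 s and EC80 at 268 s.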
(Calcium assays in cells follow changes in intracellular calcium, usually with a dye or a luminescent sensor.)

By IC50 is commonly meant the midpoint of a concentration-inhibition curve. Take `CC(C)c1ccc(F)c(-c2cc(C(F)(F)F)c(N[C@H]3C[C@@H]4CN(CC5CCOCC5)C[C@@H]4C3)nn2)c1` [Example 96, (3aR,5s,6aS)-N-(6-(2-fluoro-5-isopropylphenyl)-4-(trifluoromethyl)pyridazin-3-yl)-2-((tetrahydro-2H-pyran-4-yl)methyl)octahydro-cyclopenta[c]pyrrol-5-amine]: the remaining activity at 30 µM stood at 3% and the concentration for half-maximal inhibition (IC50) stood at 2040 nM.
For the molecule `C[C@H]1CCCN(c2cc(C(F)(F)F)c(N[C@H]3C[C@@H]4CN(CC5CCOCC5)C[C@@H]4C3)nn2)C1` [Example 6, (3aR,5s,6aS)—N-(6-((S)-3-methylpiperidin-1-yl)-4-(trifluoromethyl)pyridazin-3-yl)-2-((tetrahydro-2H-pyran-4-yl)methyl)octahydrocyclopenta[c]pyrrol-5-amine], the “Human M4 Emin” value was found to be 4% and the IC50 worked out at 1220 nM.
For `Fc1ccc(C2CC2)cc1-c1cc(C(F)(F)F)c(N[C@H]2C[C@@H]3CN(CC4CCOCC4)C[C@@H]3C2)nn1` [Example 94, (3aR,5s,6aS)-N-(6-(5-cyclopropyl-2-fluorophenyl)-4-(trifluoromethyl)pyridazin-3-yl)-2-((tetrahydro-2H-pyran-4-yl)methyl)octahydro-cyclopenta[c]pyrrol-5-amine], the remaining activity at 30 µM is 3% and the IC50 is 1330 nM.
Consider `Fc1ccccc1-c1cc(C(F)(F)F)c(N[C@H]2C[C@@H]3CN(Cc4ccccn4)C[C@@H]3C2)nn1` [Example 101, (3aR,5s,6aS)-N-(6-(2-fluorophenyl)-4-(trifluoro-methyl)pyridazin-3-yl)-2-(pyridin-2-ylmethyl)octahydro-cyclopenta[c]pyrrol-5-amine], for which the remaining activity at 30 µM was determined as 3% and the IC50 was determined as 674 nM.
Consider `Cc1ccc(F)cc1-c1cc(C(F)(F)F)c(O[C@H]2C[C@@H]3CN(CC4CCOCC4)C[C@@H]3C2)nn1` [Example 5, (3aR,5s,6aS)-5-((6-(5-fluoro-2-methylphenyl)-4-(trifluoromethyl)pyridazin-3-yl)oxy)-2-((tetrahydro-2H-pyran-4-yl)methyl)octahydrocyclopenta[c]pyrrole], for which the “Human M4 Emin” value was 7% and the IC50 stood at 1240 nM.
Take `Fc1cc(OC(F)F)ccc1-c1cc(C(F)(F)F)c(N[C@H]2C[C@@H]3CN(CC4CCOCC4)C[C@@H]3C2)nn1` [Example 83, (3aR,5s,6aS)-N-(6-(2-fluoro-4-(difluoromethoxy)phenyl)-4-(trifluoromethyl)pyridazin-3-yl)-2-((tetrahydro-2H-pyran-4-yl)methyl)octahydro-cyclopenta[c]pyrrol-5-amine]: the remaining activity at 30 µM was 3% and the IC50 stood at 408 nM.
For `COc1cc(C)c(-c2cc(C(F)(F)F)c(N[C@H]3C[C@@H]4CN(CC5CCOCC5)C[C@@H]4C3)nn2)cc1C` [Example 52, (3aR,5s,6aS)-N-(6-(4-methoxy-2,5-dimethylphenyl)-4-(trifluoromethyl)pyridazin-3-yl)-2-((tetrahydro-2H-pyran-4-yl)methyl)octahydro-cyclopenta[c]pyrrol-5-amine] the same measures were 3% and 115 nM.
For `CCOc1ccc(-c2cc(C(F)(F)F)c(N[C@H]3C[C@@H]4CN(CC5CCOCC5)C[C@@H]4C3)nn2)c(C)c1` [Example 84, (3aR,5s,6aS)-N-(6-(4-ethoxy-2-methylphenyl)-4-(trifluoromethyl)pyridazin-3-yl)-2-((tetrahydro-2H-pyran-4-yl)methyl)octahydro-cyclopenta[c]pyrrol-5-amine] the same measures were 3% and 73.7 nM.
For `[2H]C([2H])(C1CCOCC1)N1C[C@H]2C[C@H](Nc3nnc(-c4cc(F)c(F)cc4F)cc3C(F)(F)F)C[C@H]2C1` [Example 125, (3aR,5s,6aS)-2-((tetrahydro-2H-pyran-4-yl)methyl-d2)-N-(4-(trifluoromethyl)-6-(2,4,5-trifluorophenyl)pyridazin-3-yl)octahydro-cyclopenta[c]pyrrol-5-amine], the remaining activity at 30 µM worked out at 4% and the IC50 came out at 342 nM.
For `Fc1ccc(F)c(-c2cc(C(F)(F)F)c(N[C@H]3C[C@@H]4CN(Cc5ccccn5)C[C@@H]4C3)nn2)c1` [Example 48, (3aR,5s,6aS)-N-(6-(2,5-difluorophenyl)-4-(trifluoromethyl)pyridazin-3-yl)-2-(pyridin-2-ylmethyl)octahydro-cyclopenta[c]pyrrol-5-amine], in that order: 3% and 615 nM.
For `COc1ccc(-c2cc(C(F)(F)F)c(N[C@H]3C[C@@H]4CN(CC5CCOCC5)C[C@@H]4C3)nn2)c(F)c1` [Example 61, (3aR,5s,6aS)-N-(6-(2-fluoro-4-methoxyphenyl)-4-(trifluoromethyl)pyridazin-3-yl)-2-((tetrahydro-2H-pyran-4-yl)methyl)octahydro-cyclopenta[c]pyrrol-5-amine] the same measures were 3% and 233 nM.
For `[2H]C([2H])(C1CCOCC1)N1C[C@H]2C[C@H](Nc3nnc(-c4ccc(F)cc4C)cc3C(F)(F)F)C[C@H]2C1` [Example 110, (3aR,5s,6aS)-N-(6-(4-fluoro-2-methylphenyl)-4-(trifluoromethyl)pyridazin-3-yl)-2-((tetrahydro-2H-pyran-4-yl)methyl-d2)octahydro-cyclopenta[c]pyrrol-5-amine], in that order: 3% and 46.7 nM.
As for `FC(F)(F)c1cc(-c2ccccc2)nnc1N[C@H]1C[C@@H]2CN(CC3CCOCC3)C[C@@H]2C1` [Example 65, (3aR,5s,6aS)-N-(6-phenyl-4-(trifluoromethyl)pyridazin-3-yl)-2-((tetrahydro-2H-pyran-4-yl)methyl)octahydro-cyclopenta[c]pyrrol-5-amine], the remaining activity at 30 µM was 3% and the IC50 was 69 nM.
For `F[C@@H]1CCN(c2cc(C(F)(F)F)c(N[C@H]3C[C@@H]4CN(CC5CCOCC5)C[C@@H]4C3)nn2)C1` [Example 140, (3aR,5s,6aS)-N-(6-((R)-3-fluoropyrrolidin-1-yl)-4-(trifluoromethyl)pyridazin-3-yl)-2-((tetrahydro-2H-pyran-4-yl)methyl)octahydro-cyclopenta[c]pyrrol-5-amine], in that order: 2% and 9.2 nM.
`Cn1cc2cc(-c3nnc(N[C@H]4C[C@@H]5CN(CC6CCOCC6)C[C@@H]5C4)cc3C(F)(F)F)ccc2n1` [Example 1, (3aR,5s,6aS)—N-(6-(2-Methyl-2H-indazol-5-yl)-5-(trifluoromethyl)pyridazin-3-yl)-2-((tetrahydro-2H-pyran-4-yl)methyl)octahydrocyclopenta[c]pyrrol-5-amine]: the “Human M4 Emin” value came to 2% and the IC50 stood at 5.63 nM.
As to `CCOc1cc(F)c(-c2cc(C(F)(F)F)c(N[C@H]3C[C@@H]4CN(CC5CCOCC5)C[C@@H]4C3)nn2)cc1F` [Example 91, (3aR,5s,6aS)-N-(6-(4-ethoxy-2,5-difluorophenyl)-4-(trifluoromethyl)pyridazin-3-yl)-2-((tetrahydro-2H-pyran-4-yl)methyl)octahydro-cyclopenta[c]pyrrol-5-amine], the remaining activity at 30 µM turned out to be 3% and the IC50 was 280 nM.
